Earlier results in publication PMC8541353, “A Novel Phenylpyrrolidine Derivative: Synthesis and Effect on Cognitive Functions in Rats with Experimental Ishemic Stroke” (Molecules, 2021).

Conditions: cited from earlier work

Row | SMILES | Literature Report of BBB Permeability
1 | NC(=O)CN1CC(O)CC1=O (centres unmarked) [Oxiracetam] | Low [20]
2 | CC[C@@H](C(N)=O)N1C[C@H](C=C(F)F)CC1=O [Seletracetam] | Very good [19]
